Assay results as given in US8242166B2, “C(10) ethyl ester and C(10) cyclopropyl ester substituted taxanes” (Florida State University Research Foundation, Inc., priority 2008, dated 2012).
“And” between values parts separate entries of the source, which are not always exact repeats. Identical values can stand only once. Like-named read-outs stand apart in the source and are kept apart here.

Experiments:
[1] = system: PANC-1; assay: MTT cytotoxicity (IC50), PANC-1; assay type: cell-based; conditions: Homo sapiens, 72 h, read-out: IN Vitro IC50 (nm) Panc
Procedure: (§1) Compound 17932 was tested in four of these cell lines, while the remaining compounds were tested in all of these cell lines. All cell lines were maintained in RPMI-1640 tissue culture medium (TCM, supplemented with antibiotics and 10% fetal bovine serum) and cultured at 37° C. in humidified air containing 5% CO2. To assess the antiproliferative effects of the test compounds, 172 μL of tumor cell suspension (1.45×10^4 cells/ml) were added to each well of a 96-well plate and incubated for 24 h at 37° C. in 5% CO2 in air to allow cells to adhere. Seven 2-fold drug dilutions in TCM/DMSO were performed in triplicate in separate 96-well plates and 28 μL was transferred to the wells containing tumor cells (200 μL final volume/0.1% DMSO). Plates were incubated for 72 h and cell viability was determined by adding 50 μL of warm TCM containing 5 mg/mL MTT (3-[4,5-dimethylthiazol-2-yl]-2,5-diphenyltetrazolium bromide) to each well and incubating for 1 h at 37° C. Plates were processed and the absorbances of the resulting solutions were measured by a plate reader at 570 nm. […] (GraphPad Prism version 4.00 for Windows). Studies were conducted by Taxolog, Inc., Tallahassee, Fla.

[2] = system: HT29; assay: MTT cytotoxicity (IC50), HT29; assay type: cell-based; conditions: Homo sapiens, HT-29, 72 h, read-out: IN Vitro IC50 (nm) HT29
Procedure: as §1

[3] = system: 786-0; assay: MTT cytotoxicity (IC50), 786-0; assay type: cell-based; conditions: Homo sapiens
Procedure: as §1

[4] = system: A375; assay: MTT cytotoxicity (IC50), A375; assay type: cell-based; conditions: Homo sapiens, A-375
Procedure: as §1

[5] = system: A549; assay: MTT cytotoxicity (IC50), A549; assay type: cell-based; conditions: Homo sapiens, 72 h, read-out: IN Vitro IC50 (nm) A549
Procedure: as §1

[6] = system: MALME-3; assay: MTT cytotoxicity (IC50), MALME-3; assay type: cell-based; conditions: Homo sapiens, 72 h, read-out: IN Vitro IC50 (nm) Malme3
Procedure: as §1

[7] = system: OVCAR5; assay: MTT cytotoxicity (IC50), OVCAR5; assay type: cell-based; conditions: Homo sapiens, OVCAR-5, 72 h, read-out: IN Vitro IC50 (nm) OVCAR5
Procedure: as §1

[8] = system: OVCAR4; assay: MTT cytotoxicity (IC50), OVCAR4; assay type: cell-based; conditions: Homo sapiens, OVCAR-4, 72 h, read-out: IN Vitro IC50 (nm) OVCAR4
Procedure: as §1

[9] = system: HOP-18; assay: MTT cytotoxicity (IC50), HOP-18; assay type: cell-based; conditions: Homo sapiens, 72 h, read-out: IN Vitro IC50 (nm) HOP18
Procedure: as §1

[10] = system: SK-MEL-28; assay: MTT cytotoxicity (IC50), SK-MEL-28; assay type: cell-based; conditions: Homo sapiens, 72 h, read-out: IN Vitro IC50 (nm) ske-mel28
Procedure: as §1

[11] = system: SNB-19; assay: MTT cytotoxicity (IC50), SNB-19; assay type: cell-based; conditions: Homo sapiens, 72 h, read-out: IN Vitro IC50 (nm) SNB19
Procedure: as §1

[12] = system: BxPC-3 cancer cell line; assay: MTT cytotoxicity (IC50), BxPC-3 (Oncodesign); assay type: cell-based; conditions: Homo sapiens
Procedure: BxPC-3 cancer cell line (Source ATCC) and culture medium were purchased and provided by Oncodesign (France).
Tumor cells (5,000 cells per well) were plated in 96-well flat-bottom microtitration plates (Ref 167008, Batch 083310, Nunc, Dutscher, Brumath, France) and incubated at 37° C. for 24 hours before treatment in 100 μl of drug-free RPMI 1640 medium supplemented with 10% FBS. Tumor cell lines were incubated for 72 hours with 10 concentrations of both test substances and TXT (40 to 0.07 nM using ½ step dilutions). Experiments were repeated three times, each assay being issued from quadruplicate. Control cells were treated with the vehicle alone. At the end of treatments, the cytotoxic activity was evaluated by a MTT assay. These studies were conducted at Oncodesign, France.

[13] = system: human BxPC-3 human pancreatic xenograft; assay type: in vivo; conditions: for optimal T/C % value: at D53; for T/C % values: from D33
Procedure: Method: Twenty four (24) hours after a whole body irradiation with a γ-source (7.0 Gy, Co^60, INRA, Dijon, France) 20×10^6 BxPC-3 cells in 200 μl of RPMI 1640 culture medium were subcutaneously injected in the right flank of 8 female Nude rats to generate tumor material. When the tumor size reaches approximately 1,000 mm^3, the tumors were surgically excised for implantation into recipient Nude female rats. Twenty four (24) hours after a whole body irradiation (7.0 Gy, Co^60, INRA, Dijon, France), fresh BxPC-3 tumor fragments were sc implanted in the right flank of 52 Nude female rats (1 fragment/rat) at D0 using surgical pliers and skin was stitched. The antitumor activity study was started at D21 when the mean tumor volume has reached 321.6±131.2 mm^3. Before the start of treatments, 42 tumor bearing rats out of 52 grafted were randomized into 7 groups of 6 animals.
[…]. At 7 mg/kg/inj, only two treatments were performed at D21 and D42 due to severe body weight loss.

`CC(=O)O[C@@]12CO[C@@H]1C[C@H](O)[C@@]1(C)C(=O)[C@H](OC(=O)C3CC3)C3=C(C)[C@@H](OC(=O)[C@H](O)[C@@H](NC(=O)OC4CCC4)c4cccs4)C[C@@](O)([C@@H](OC(=O)c4ccccc4)C12)C3(C)C` (stereo partly shown) [Compound 18365] gave an IC50 [1] of 1.2 nM, an IC50 [2] of 0.5 nM and an IC50 ([3]; MTT, 72 h, read-out: IN Vitro IC50 (nm) 786-0) of 1.1 nM. For the same compound, the IC50 ([3]; Resistance MDR1+, read-out: 786-0 Renal (Table 4, quantity not named; IC50 values as Table 2)) was 1.1 nM, the IC50 ([4]; MTT, 72 h, read-out: IN Vitro IC50 (nm) A375) was 0.6 nM and the IC50 ([4]; Resistance MRP9, read-out: A375 Melanoma (Table 4, quantity not named; IC50 values as Table 2)) was 0.6 nM. For the same compound, the IC50 [5] was 0.5 nM, the IC50 [6] was 4.1 nM and the IC50 [7] was 0.3 nM. The IC50 [8] was 1.1 nM, the IC50 [9] was 0.7 nM and the IC50 [10] was 0.9 nM. It also gave an IC50 [11] of 1.1 nM, an IC50 ([12]; BXPC-3, 72 h, Exp 1, MTT, 72 hours, read-out: IC50 (nM) BxPC-3) of 0.79 nM and an IC50 ([12]; BXPC-3, 72 h, Exp 2, MTT, 72 hours, read-out: IC50 (nM) BxPC-3) of 1.07 nM. For the same compound, the IC50 ([12]; BXPC-3, 72 h, Exp 3, MTT, 72 hours, read-out: IC50 (nM) BxPC-3) was 0.99 nM, the IC50 ([12]; BXPC-3, mean of 3 experiments, read-out: IC50 Mean ± SD (nM) BxPC-3) was 0.95 ± 0.14 nM and the wt loss ([13]; 5 mg/kg) was 16.9%. The “tolerability of repeated IV treatments” value ([13]; 5 mg/kg/inj) was “not well tolerated”, the “mean doubling time (DT) of tumors” value ([13]; 5 mg/kg/inj IV, repeated) was 24.7 ± 10.4 days and the “time to reach volume (T to V) of 1,000 mm^3” value ([13]; 5 mg/kg/inj IV, repeated) was 64.3 ± 16.3 days. The body weight loss ([13]; 5 mg/kg/inj IV, at D33) was −16.9±6.1%, the “optimal T/C % value” ([13]; 5 mg/kg/inj IV) was 11.0% and the “animals with complete tumor regression” value ([13]; 5 mg/kg/inj IV, at D81 (final sacrifice), 6 rats per group) was “two”. For the same compound, the T/C % values ([13]; 5 mg/kg/inj IV) was “lower than 42%”, the “tolerability of repeated IV treatments” value ([13]; 7 mg/kg/inj) was “not tolerated” and the “rats out of six alive at the end of the study” value ([13]; 7 mg/kg/inj IV) was “one”. For the same compound, the “MBWC D21-D26” value ([13]; 7 mg/kg/inj IV, after the first treatment) was −16.5±7.2%, the “optimal T/C % value” ([13]; 7 mg/kg/inj IV) was 13.2% and 8.9% and the T/C % values ([13]; 7 mg/kg/inj IV) was “lower than 42%”. The “antitumor activity” value ([13]; repeated IV injections at 5 and 7 mg/kg/inj) was “marked antitumor activity”.
